Read-outs that look alike come from different tables or passages of the source.
Tests used:
[1] = system: PqsR (PqsR-controlled pqsA promoter, PA14 mCTX::PpqsA-lux); experiment: Bioluminescent reporter assay, PA14 mCTX::PpqsA-lux; format: cell-based; conditions: Pseudomonas aeruginosa
Procedure: (§1) An extensive SAR was performed on 6a to investigate the role of substitutions around various positions of the benzimidazole ring (groups R1–R3) as well as the aromatic tail (groups R4–R5) to fine-tune the potency of this series (6a–u) (Table 2). The activity of these analogues to inhibit the pqs QS system was evaluated in the PAO1-L and PA14 strains (that belong to the two major P. aeruginosa genomic lineages), both harboring a chromosomally integrated mCTX::PpqsA-lux transcriptional fusion to report for the activity of pqs system. Successful pharmacological blocking of AQ signal reception at the level of PqsR leads to a reduced transcription of the pqsA-lux genes and ultimately reduction in the luminescence readout.
(§2) Strains PA14 mCTX::PpqsA-lux and PAO1-L mCTX::PpqsA-lux were used to detect PqsR-controlled activation of the pqsA promoter, as previously described,[45] and the assay was performed according to a published method.[46] For initial screening, the compounds were tested at a concentration of 10 μM, which was prepared from a 10 mM stock, in DMSO.

[2] = system: PqsR (PqsR-controlled pqsA promoter, PAO1-L mCTX::PpqsA-lux); experiment: Bioluminescent reporter assay, PAO1-L mCTX::PpqsA-lux; format: cell-based, Pseudomonas aeruginosa; conditions: for IC50: Pseudomonas aeruginosa; for reduction in potency compared with 6f: PAO1-L; for activity relative to 6f / to each other, in words: PAO1-L reporter (6i, 6j, 6s: both reporter strains); for pqs inhibitory activity in the PA bioluminescent reporter assay, in words: reporter strains
Procedure: as §1, §2

[3] = system: A549 human lung epithelial carcinoma cell line; experiment: A549 cytotoxicity assay (resazurin / alamar blue); format: cell-based; conditions: at concentrations up to 100 μM (1, 50, 100 μM), 24 h
Procedure: Establishing the safety profile of new chemical entities is paramount for further drug development. […] The assay employed resazurin reduction, a sensitive fluorometric assay widely used as a standard methodology in drug discovery research.[35] This assay relies on the ability of living cells to reduce resazurin to the fluorescent compound, resorufin, which indicates the rate of the metabolic activity as a means to quantify cell viability.
Cell viability was assessed according to Nimesh et al.[51] on A549 adenocarcinomic human alveolar basal epithelial cell line. The viability of the A549 cell line was assessed after overnight incubation with three concentrations (1, 50, and 100 μM) of the corresponding compound using alamar blue (resazurin) dye. Cells were maintained in the Dulbecco’s Modified Essential Medium (DMEM) supplemented with 10% fetal bovine serum (FBS) and 1% penicillin–streptomycin–neomycin (PSN). After that, 100 μL of suspended cells with a final concentration (1 × 10^4 cells/wall) were seeded in 96-well plates with 100 μL of (1, 50, 100 μM) concentrations of the tested compound was dispensed in sextuplicate. […] The plates were further incubated for 4–6 h and the intensity of the fluorescence was measured using an excitation light of 510 nm and measuring the fluorescence output at 590 nm. The cell viability in each well was normalized to the DMSO reading.

[4] = system: pyocyanin production in P. aeruginosa; experiment: Pyocyanin quantification; format: cell-based, Pseudomonas aeruginosa; conditions: PAO1-L; concentration three times the IC50; relative to DMSO
Procedure: This assay was extended further to investigate the effect of 6f on pyocyanin production in different P. aeruginosa at 6f concentration of 200 nM (Figure 5b).
The experiment was performed following a published protocol with minor modifications. Strains were cultured into 5 mL of fresh medium overnight. […] Cells were centrifuged at 10 000 RCF for 10 min (Allegra 64R centrifuge, Beckman Coulter, High Wycombe, UK), and the supernatant was transferred to 15 mL falcon tubes with a HSW 10 mL Soft-Ject Syringe and a […] Sartorius syringe-driven filter (Fisher Brand, Loughborough, UK). Pyocyanin pigment was extracted into chloroform by mixing 7.5 mL of supernatant with 4.5 mL of chloroform. Pyocyanin was further extracted into 1.5 mL of 0.2 M HCL, which gave a pink/red solution, and the absorbance was measured at 520 nm.[47]

[5] = system: PqsR (PqsR-controlled pqsA promoter, PAO1-L mCTX::PpqsA-lux); set-up: method as in PMID 34503335; conditions: previously reported inhibitor; read-out: IC50 in P. aeruginosa PAO1-L; cited from earlier work
[6] = PA14, read-out: IC50 (μM) PA14 mCTX::PpqsA-lux
[7] = PAO1, read-out: IC50 (μM) PAO1-L mCTX::PpqsA-lux

Molecule | IC50 [1, 6] | IC50 [2, 7] | further results
CC(C)n1c(NCC(O)COc2ccc(CC#N)cc2)nc2ccccc21 (stereo not shown) [Compound 6p, 2-(4-(2-Hydroxy-3-((1-isopropyl-1H-benzo[d]imidazol-2-yl)amino)propoxy)phenyl) Acetonitrile] | 1.03 µM | 0.77 µM | –
COCCn1c(NCC(O)COc2ccc(CC#N)cc2)nc2ccc(Cl)cc21 (stereo not shown) [Compound 6t, 2-(4-(3-((6-Chloro-1-(2-methoxyethyl)-1H-benzo[d]imidazol-2-yl)amino)-2-hydroxypropoxy)phenyl) Acetonitrile] | 0.2 ± 0.05 µM | 0.18 ± 0.04 µM | reduction in potency compared with 6f [2]: 2 fold
CC(C)n1c(NC[C@@H](O)COc2ccc(CC#N)cc2)nc2ccc(Cl)cc21 [Compound 6w] | – | – | activity relative to 6f / to each other, in words [2]: comparable activity to the racemic compound 6f
CC(C)n1c(NCC(O)COc2ccc(CC#N)cc2F)nc2ccc(Cl)cc21 (stereo not shown) [Compound 6n, 2-(4-(3-((6-Chloro-1-isopropyl-1H-benzo[d]imidazol-2-yl)amino)-2-hydroxypropoxy)-3-fluorophenyl) Acetonitrile] | 0.11 ± 0.01 µM | 0.05 ± 0.02 µM | cytotoxicity for A549 cells [3]: not cytotoxic
2-(4-(3-((5-Chloro-1-methyl-1H-benzo[d]imidazol-2-yl)amino)-2-hydroxypropoxy)phenyl) Acetonitrile [Compound 6b] | – | – | pqs inhibitory activity in the PA bioluminescent reporter assay, in words [2]: abolished the activity
N#CCc1ccc(OCC(O)CNc2nc3ccc(Cl)cc3n2C2CCCC2)cc1 (stereo not shown) [Compound 6k, 2-(4-(3-((6-Chloro-1-cyclopentyl-1H-benzo[d]imidazol-2-yl)amino)-2-hydroxypropoxy)phenyl) Acetonitrile] | 0.47 ± 0.1 µM | 0.44 ± 0.1 µM | reduction in potency compared with 6f [2]: ~6 fold
2-(4-(3-((5,6-Dichloro-1-methyl-1H-benzo[d]imidazol-2-yl) amino)-2-hydroxypropoxy) phenyl) Acetonitrile [Compound 6c] | – | – | pqs inhibitory activity in the PA bioluminescent reporter assay, in words [2]: abolished the activity
CN(C)CCn1c(NCC(O)COc2ccc(CC#N)cc2)nc2ccc(Cl)cc21 (stereo not shown) [Compound 6q, 2-(4-(3-((6-Chloro-1-(2-(dimethylamino)ethyl)-1H-benzo[d]imidazol-2-yl)amino)-2-hydroxypropoxy)phenyl) Acetonitrile] | – | – | pqs inhibitory activity in the PA bioluminescent reporter assay, in words [2]: obliterated the biological activity
CC(C)n1c(NC[C@H](O)COc2ccc(CC#N)cc2)nc2ccc(Cl)cc21 [Compound 6v] | – | – | activity relative to 6f / to each other, in words [2]: comparable activity to the racemic compound 6f
CC(C)(C)Cn1c(NCC(O)COc2ccc(CC#N)cc2)nc2ccc(Cl)cc21 (stereo not shown) [Compound 6h, 2-(4-(3-((6-Chloro-1-neopentyl-1H-benzo[d]imidazol-2-yl)amino)-2-hydroxypropoxy)phenyl) Acetonitrile] | 0.25 µM | 0.38 µM | reduction in potency compared with 6f [2]: ~6 fold
CC(C)(C)n1c(NCC(O)COc2ccc(CC#N)cc2)nc2ccc(Cl)cc21 (stereo not shown) [Compound 6g, 2-(4-(3-((1-(tert-Butyl)-6-chloro-1H-benzo[d]imidazol-2-yl)amino)-2-hydroxypropoxy)phenyl) Acetonitrile] | 0.23 ± 0.01 µM | 0.22 ± 0.01 µM | inhibition of pyocyanin production [4]: ~80%
CC(C)n1c(NCC(O)COc2ccc(CC#N)c(F)c2)nc2ccc(Cl)cc21 (stereo not shown) [Compound 6o, 2-(4-(3-((6-Chloro-1-isopropyl-1H-benzo[d]imidazol-2-yl)amino)-2-hydroxypropoxy)-2-fluorophenyl) Acetonitrile] | 0.09 ± 0.01 µM | 0.06 ± 0.03 µM | –
N#CCc1ccc(OCC(O)CNc2nc3ccc(Cl)cc3n2C2CCC2)cc1 (stereo not shown) [Compound 6j, 2-(4-(3-((6-Chloro-1-cyclobutyl-1H-benzo[d]imidazol-2-yl)amino)-2-hydroxypropoxy)phenyl) Acetonitrile] | 0.31 ± 0.05 µM | 0.16 ± 0.01 µM | activity relative to 6f / to each other, in words [2]: comparable potencies to 6f
Cn1c(SCC(O)COc2ccc(CC#N)cc2)nc2ccc(Cl)cc21 (stereo not shown) [Compound 11] | – | – | pqs inhibitory activity in the PA bioluminescent reporter assay, in words [2]: abolished pqs inhibitory activity
N#CCc1ccc(OCC(O)CNc2nc3ccc(Cl)cc3n2CCO)cc1 (stereo not shown) [Compound 6u, 2-(4-(3-((6-Chloro-1-(2-hydroxyethyl)-1H-benzo[d]imidazol-2-yl)amino)-2-hydroxypropoxy)phenyl) Acetonitrile] | 0.1 ± 0.02 µM | 0.18 ± 0.05 µM | reduction in potency compared with 6f [2]: 2 fold
N#CCc1ccc(OCC(O)CNc2nc3ccc(Cl)cc3n2CCOCc2ccccc2)cc1 (stereo not shown) [Compound 6m, 2-(4-(3-((1-(2-(Benzyloxy)ethyl)-6-chloro-1H-benzo[d]imidazol-2-yl)amino)-2-hydroxypropoxy)phenyl) Acetonitrile] | – | 1.06 µM | reduction in potency compared with 6f [2]: 14 fold
N#CCc1ccc(OCC(O)CNc2nc3ccc(Cl)cc3n2C2CC2)cc1 (stereo not shown) [Compound 6i, 2-(4-(3-((6-Chloro-1-cyclopropyl-1H-benzo[d]imidazol-2-yl)amino)-2-hydroxypropoxy)phenyl) Acetonitrile] | 0.09 ± 0.02 µM | 0.07 ± 0.03 µM | activity relative to 6f / to each other, in words [2]: comparable potencies to 6f
N#CCc1ccc(OCC(O)CNc2nc3ccc(Cl)cc3n2C2CCCCC2)cc1 (stereo not shown) [Compound 6l, 2-(4-(3-((6-Chloro-1-cyclohexyl-1H-benzo[d]imidazol-2-yl)amino)-2-hydroxypropoxy)phenyl) Acetonitrile] | 1.4 ± 0.1 µM | 1.7 ± 0.5 µM | reduction in potency compared with 6f [2]: 25 fold
CN1CCC(n2c(NCC(O)COc3ccc(CC#N)cc3)nc3ccc(Cl)cc32)CC1 (stereo not shown) [Compound 6r, 2-(4-(3-((6-Chloro-1-(1-methylpiperidin-4-yl)-1H-benzo[d]imidazol-2-yl)amino)-2-hydroxypropoxy)phenyl) Acetonitrile] | – | – | pqs inhibitory activity in the PA bioluminescent reporter assay, in words [2]: not active
Cn1c(NCC(O)COc2ccc(CC#N)cc2)nc2ccc(Cl)cc21 (stereo not shown) [Compound 6a, 2-(4-(3-((6-Chloro-1-methyl-1H-benzo[d]imidazol-2-yl)amino)-2-hydroxypropoxy)phenyl) Acetonitrile] | – | – | IC50 ([1]; PA14, read-out: IC50 (μM) PA14 PpqsA-lux): 0.2 ± 0.02 µM; enhancement of activity compared to 1 ([2]; PAO1-L laboratory strain): 15 fold; IC50 ([2]; PAO1, read-out: IC50 (μM) PAO1-L PpqsA-lux): 0.21 ± 0.04 µM
N#CCc1ccc(OCC(O)CNc2nc3ccc(Cl)cc3o2)cc1 (stereo not shown) [Compound 7] | – | – | pqs inhibitory activity in the PA bioluminescent reporter assay, in words [2]: abolished pqs inhibitory activity
N#CCc1ccc(OCC(O)CNc2nc3ccc(Cl)cc3n2C2COC2)cc1 (stereo not shown) [Compound 6s, 2-(4-(3-((6-Chloro-1-(oxetan-3-yl)-1H-benzo[d]imidazol-2-yl)amino)-2-hydroxypropoxy)phenyl) Acetonitrile] | 0.21 ± 0.03 µM | 0.24 ± 0.02 µM | activity relative to 6f / to each other, in words [2]: comparable potencies to 6f
N#CCc1ccc(OCC(O)Cn2cnc3ccc(Cl)cc3c2=O)cc1 (stereo not shown) [Compound 1] | – | – | IC50 [5]: 3200 nM
N#CCc1ccc(OCC(O)CNc2nc3ccc(Cl)cc3s2)cc1 (stereo not shown) [Compound 8] | – | – | pqs inhibitory activity in the PA bioluminescent reporter assay, in words [2]: abolished pqs inhibitory activity

From publication PMC10823468, “Design, Synthesis, and Evaluation of New 1H-Benzo[d]imidazole Based PqsR Inhibitors as Adjuvant Therapy for Pseudomonas aeruginosa Infections” (Journal of Medicinal Chemistry, 2024)
